From ChEMBL document CHEMBL1201862, “PubChem BioAssay data set” (2004)
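Five compound concentrations were applied to cells in 96-well plates for 48 hours; endpoints were derived by simple linear interpolation of the resulting dose-response curve. GI50: concentration for 50% inhibition of growth.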 Active and inactive are the calls of the source. No stated cut-off is given here; in the data, active = GI50 up to about 1.1 µM and inactive = higher.

Columns and labels:
Assay in all cases: NCI-60 cell line screen, 48 h
HT-29 = tested on: HT-29
EKVX = tested on: EKVX
DLD-1 = tested on: DLD-1
SNB-19 = tested on: SNB-19
SW-620 = tested on: SW-620
OVCAR-4 = tested on: OVCAR-4
COLO 205 = tested on: COLO 205
IGROV-1 = tested on: IGROV-1
SN12C = tested on: SN12C
ACHN = tested on: ACHN
MOLT-4 = tested on: MOLT-4
SNB-75 = tested on: SNB-75
A498 = tested on: A498
SR = tested on: SR
OVCAR-5 = tested on: OVCAR-5
786-0 = tested on: 786-0
SK-OV-3 = tested on: SK-OV-3

SMILES | GI50 (HT-29) | GI50 (EKVX) | GI50 (DLD-1) | GI50 (SNB-19) | GI50 (SW-620) | GI50 (OVCAR-4) | GI50 (COLO 205) | GI50 (IGROV-1) | GI50 (SN12C) | GI50 (ACHN) | GI50 (MOLT-4) | GI50 (SNB-75) | GI50 (A498) | GI50 (SR) | GI50 (OVCAR-5) | GI50 (786-0) | GI50 (SK-OV-3)
CC(=O)N1[C@H](C(=O)O)CS[C@H]1c1ccncc1 | > 100 µM (inactive) | > 100 µM (inactive) | > 100 µM (inactive) | > 100 µM (inactive) | > 100 µM (inactive) | > 100 µM (inactive) | > 100 µM (inactive) | > 100 µM (inactive) | > 100 µM (inactive) | > 100 µM (inactive) | > 100 µM (inactive) | > 100 µM (inactive) | > 100 µM (inactive) | > 100 µM (inactive) | > 100 µM (inactive) | > 100 µM (inactive) | 
Cc1ccc(S(=O)(=O)OCOS(=O)(=O)c2ccc(C)cc2)cc1 |  | > 100 µM (inactive) | > 100 µM (inactive) | > 100 µM (inactive) | > 100 µM (inactive) |  | > 100 µM (inactive) | > 100 µM (inactive) | > 100 µM (inactive) | > 100 µM (inactive) | > 100 µM (inactive) |  |  | > 100 µM (inactive) | > 100 µM (inactive) | > 100 µM (inactive) | > 100 µM (inactive)
CSC(SC)=C1Sc2cccc(Cl)c2S1 | 29 µM (inactive) | 35.4 µM (inactive) | 45.2 µM (inactive) | 85.1 µM (inactive) | 39 µM (inactive) | 68.4 µM (inactive) | 20.4 µM (inactive) | > 100 µM (inactive) | > 100 µM (inactive) | 74 µM (inactive) | 31.8 µM (inactive) | 65.6 µM (inactive) | 76.4 µM (inactive) |  | 45.6 µM (inactive) | 28.5 µM (inactive) | 98.4 µM (inactive)
CCOC(=O)Cc1ccc2c(c1O)C(=O)c1c(ccc(CC(=O)OCC)c1O)C2=O | > 100 µM (inactive) | > 100 µM (inactive) | > 100 µM (inactive) | > 100 µM (inactive) | > 100 µM (inactive) |  | > 100 µM (inactive) |  | > 100 µM (inactive) | > 100 µM (inactive) | 87.9 µM (inactive) | > 100 µM (inactive) | > 100 µM (inactive) | > 100 µM (inactive) | > 100 µM (inactive) | > 100 µM (inactive) | > 100 µM (inactive)
O=C(Cl)c1cc([N+](=O)[O-])cc([N+](=O)[O-])c1 | > 100 µM (inactive) | > 100 µM (inactive) | > 100 µM (inactive) | > 100 µM (inactive) | > 100 µM (inactive) | > 100 µM (inactive) | > 100 µM (inactive) | > 100 µM (inactive) |  | > 100 µM (inactive) | > 100 µM (inactive) | > 100 µM (inactive) |  | > 100 µM (inactive) | > 100 µM (inactive) | > 100 µM (inactive) | > 100 µM (inactive)
CC(=O)[O-].[O-]c1c(Cl)cc(Cl)cc1/C=N/Nc1ccccn1.[Zn+2] | 6.82 µM (inactive) | 2.18 µM (inactive) | 0.415 µM (active) | 3.86 µM (inactive) | 1.74 µM (inactive) |  | 15.2 µM (inactive) | 1.96 µM (inactive) | 5.82 µM (inactive) | 0.535 µM (active) | 0.183 µM (active) | 4.99 µM (inactive) | > 100 µM (inactive) | 0.16 µM (active) | 2 µM (inactive) | 1.59 µM (inactive) | 
CCNC(=O)C(O)C1(O)CCC2[C@@H]3CCC4=CC(=O)C=C[C@]4(C)C3[C@@H](O)C[C@@]21C (stereo partly specified) | > 100 µM (inactive) | > 100 µM (inactive) | > 100 µM (inactive) | > 100 µM (inactive) | > 100 µM (inactive) | > 100 µM (inactive) | > 100 µM (inactive) | > 100 µM (inactive) | 53.2 µM (inactive) | > 100 µM (inactive) | 52.1 µM (inactive) | > 100 µM (inactive) |  | 63 µM (inactive) | > 100 µM (inactive) | > 100 µM (inactive) | > 100 µM (inactive)
